“And” between values parts separate entries of the source, which are not always exact repeats. Equal entries are not always repeated.
Assay: In vitro enzyme assay to detect hydrolysis of chlorophenol red-beta-D-[…] directly proportional to the number of Toxoplasma stably expressing beta-galactosidase
Assay type: functional, organism-based, Toxoplasma gondii
Conditions: for IC50: Toxoplasma gondii

O=C1CCCCN1c1ccc(S(=O)(=O)NC2CC2)cc1
IC50: > 50.1 µM

CSCC(=O)NC(C1CCNCC1)[C@H]1C[C@@H](O)C1 (stereo partly specified)
IC50: > 50.1 µM

Cc1cc(C(=O)N(C)Cc2cccs2)nc(N2CCCCC2)n1
IC50: > 50.1 µM

CCN(CC)CCNc1nc(C(C)C)nc2c(C)nn(CC)c12
IC50: > 50.1 µM

O=C(Nc1ccncc1)NC1CCN(c2ccccc2OC(F)F)C1 (stereo unspecified)
IC50: 1.87 µM

OC1(CNCCOCc2ccc(Cl)cc2)CCCNC1 (stereo unspecified)
IC50: > 50.1 µM

CCNC1CCS(=O)(=O)C1 (stereo unspecified)
IC50: > 50.1 µM

CC1(C)CC(n2cccn2)C(C)(C)O1 (stereo unspecified)
IC50: > 50.1 µM

CCOc1ccc(C(=O)N2CCC(N)CC2)cc1
IC50: > 50.1 µM

Cc1cc(C(=O)NCc2ccco2)nn1C
IC50: > 50.1 µM

Cc1ccc(CN2CCC(C3CCNC3)CC2)nc1 (stereo unspecified)
IC50: > 50.1 µM

CC(C)(CO)NCC(O)c1cccc(Cl)c1 (stereo unspecified)
IC50: > 50.1 µM

CCn1nc(C)c2nc(C(C)C)nc(NCCc3ccc(O)cc3)c21
pIC50: 4.521
IC50: 22.2 µM

CC(=O)Nc1ccc(S(=O)(=O)N2CCC(N)CC2)cc1
IC50: > 50.1 µM

CNC(=O)[C@@H]1CSCN1c1ccc(C(F)(F)F)cn1
IC50: > 50.1 µM

CCn1c(SCC(=O)O)nnc1C(C)NC(=O)c1ccc(Cl)cc1 (stereo unspecified)
IC50: > 50.1 µM

Cc1nc(C2(NCc3c(C)nn(C)c3N3CCOCC3)CCC2)no1
IC50: 25.3 µM

Cc1c(CC(=O)N2CCN(C(C)C)CC2)nnn1-c1ccccc1
IC50: > 50.1 µM

CCN1CCCC1CNCC(=O)N(C)C (stereo unspecified)
IC50: > 50.1 µM

C[C@@H]1CN(C2CCN(c3ccccc3F)CC2)CC[C@]1(C)O
IC50: > 50.1 µM

Cn1cc(N2CC3(CCN(Cc4nccs4)CC3)OCC2=O)cn1
IC50: > 50.1 µM

Cn1ncc(C(=O)N2CCN(CCS(C)(=O)=O)CC2)c1Cl
IC50: > 50.1 µM

CCCNC(=O)NCCc1noc(-c2cccnc2)n1
IC50: > 50.1 µM

CC(=O)N1N=C(c2cccnc2)CC1c1ccco1 (stereo unspecified)
IC50: > 50.1 µM

Cc1ccc([C@]2(O)CC[C@H]3CN(Cc4cccc(Cl)c4Cl)C[C@H]32)nc1
IC50: 8.76 µM

Cc1cccc(NC(=O)[C@@H]2CCCN2)n1
IC50: > 50.1 µM

CCn1c(SCC(N)=O)nnc1C(C)NC(=O)c1ccc(Cl)cc1 (stereo unspecified)
IC50: > 50.1 µM

Cc1cc(C(=O)Nc2cccc(C[S+](C)[O-])c2)on1 (stereo unspecified)
IC50: > 50.1 µM

COc1cccc(-c2noc(C3CCN(Cc4ccccc4C)C3)n2)c1 (stereo unspecified)
IC50: 10.1 µM

O=C(c1ccc(-c2ccc(O)nc2)s1)N1CCCCCC1
IC50: > 50.1 µM

CCCc1nc(NCCCOCC)c2c(n1)c(C)nn2CC
IC50: > 50.1 µM

COc1cc(Br)c(CN)cc1OC
IC50: > 50.1 µM

Cc1[nH]c2ccccc2c1-c1ccnc(N[C@@H](C)CO)n1
IC50: 43.3 µM

CCNc1ncc2c(n1)CN(c1ccc(C)c(C)c1)C2=O
IC50: > 50.1 µM

CC(C)CCC(=O)N1CCC(C)(CO)C1 (stereo unspecified)
IC50: > 50.1 µM

CS(=O)(=O)N1CCOCC2(CCN(c3ccccn3)C2)C1 (stereo unspecified)
IC50: > 50.1 µM

CN(C)C(=O)CNC(CO)c1ccc(Cl)c(F)c1 (stereo unspecified)
IC50: > 50.1 µM

Cc1cccc(Cn2cc(Br)c(NS(C)(=O)=O)n2)c1
IC50: > 50.1 µM

CCOCCCNc1cc(C)nn2cnnc12
IC50: > 50.1 µM

Cn1ccnc1CN1CCC(c2ccnc(-c3cccc(O)c3)c2)C1 (stereo unspecified)
IC50: 37.9 µM

Cc1ccc(NC(=O)CCCNC(=O)C2CC2)cc1
IC50: > 50.1 µM

Cc1cnc(N)c(C)c1
IC50: > 50.1 µM

N#Cc1ccnc(SCC(=O)Nc2ccncc2)c1
IC50: > 50.1 µM

CC(C)(CO)NCC(O)c1cccc(F)c1 (stereo unspecified)
IC50: > 50.1 µM

CCNc1ccc(C(F)(F)F)cn1
IC50: > 50.1 µM

Cc1ccc(CN2CCCn3c(nc(Cn4ccnc4)cc3=O)C2)o1
IC50: > 50.1 µM

CCc1ccc(NC(=O)C(C)Nc2cccc3c2OCCO3)cc1 (stereo unspecified)
pIC50: 5.373 and 4.972

CC(C)[C@@H]1CN(c2ncc(F)cn2)C[C@H]1NS(=O)(=O)N(C)C
IC50: > 50.1 µM

O=C(NC1CCCC1)c1cnccn1
IC50: > 50.1 µM

CC(C)(C)c1ccc(-n2ncc3c2CCCC3N)cc1 (stereo unspecified)
IC50: 16.4 µM

Cc1ccc(C)c(C(=O)N2CCC3(CCC(=O)N(CC(N)=O)C3)CC2)c1
IC50: > 50.1 µM

Cc1cccc(OCc2ccc(C(=O)N3N=CCC3(O)C(F)(F)F)o2)c1 (stereo unspecified)
pIC50: 5.353
IC50: 3.87 µM

C1CC(C2CNC2)CCO1
IC50: > 50.1 µM

O=C(NCCC1=CCCCC1)c1n[nH]c2c1CCCC2
pIC50: 5.49
IC50: 1.7 µM

CCc1cnc(N2CCNCC2)s1
IC50: > 50.1 µM

CC(=O)Nc1ncc(S(=O)(=O)Nc2ccc(C)cc2)s1
IC50: > 50.1 µM

CCC1=NC(SCC(=O)c2ccc(C)cc2)c2cc(CC)sc2N1 (stereo unspecified)
IC50: > 50.1 µM

CSCc1ccc(C(=O)N(C)Cc2cnccn2)o1
IC50: > 50.1 µM

CN(C)[C@H]1CCCCN(C(=O)Cn2cc(Cl)cn2)C1
IC50: > 50.1 µM

CCCn1c(NCCc2ccccc2)nc2c(C)nn(C)c2c1=O
IC50: 31.5 µM

Cc1nn(C)c2c(=O)n(Cc3ccc(F)cc3)nnc12
IC50: > 50.1 µM

COC(=O)CC(C1=Cc2ccccc2OC1)c1oc(C)cc(=O)c1O (stereo unspecified)
pIC50: 4.537
IC50: > 50.1 µM

O=C(N1CCOCC1)[C@@]12CCO[C@@H]1CCN(C1CCC1)C2
IC50: > 50.1 µM

Cc1cncc(C(N)=O)c1
IC50: > 50.1 µM

Cc1ccc(CN2Cc3nnn(C)c3C(COCc3ccccc3)C2)s1.O=C(O)C(F)(F)F (stereo unspecified)
pIC50: 4.987
IC50: 7.69 µM

Cc1c(C(=O)NCC2CCN(C)C2)n(C)c2c(C)cccc12 (stereo unspecified)
IC50: > 50.1 µM
